This is an account of results in US7868135B2, “Compositions of lipopeptide antibiotic derivatives and methods of use thereof” (priority 2003, dated 2011).

The structures appear in SMILES notation. Starred links: 1 amine or outer side, 2 acyl side, 3 side chain; linkers in the order of their positions; H or OH if unused. Positions of bridges follow the written chain, without caps; N, C: chain ends. Non-standard residues stand in square brackets, D forms with d. Residues, ends and D or L forms follow the SMILES beside them. ξ: configuration not given here. *: point of attachment. ξAbu(3ξ-NHCOCH2NH2) = CC(NC(=O)CN)C(N)C(=O)O; ξAbu(βξ-NH2) = CC(N[*:3])C(N[*:1])C(=O)[*:2]; X8 = O=C(/C=C/c1ccc(N[*:1])cc1)[*:2]; ξAsp(βξ-Me) = CC(C(=O)O)C(N)C(=O)O; X1 = O=C(Cc1ccc(N[*:1])cc1)[*:2]; Myristoyl = CCCCCCCCCCCCCC(=O)*; Lauroyl = CCCCCCCCCCCC(=O)*; 4Abz = Nc1ccc(C(=O)O)cc1; Pip = O=C(O)[CH]1CCCCN1

The test system of one test is Staphylococcus aureus (MSSA). To be noted: 24 h. Put shortly:
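Broth microdilution MIC per NCCLS M7-A6 with doubling serial dilutions, in cation-adjusted Mueller-Hinton broth supplemented with 0.625 mM calcium.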
With `CCCCCCCCCCCCCCC(=O)NC(CC(=O)O)C(=O)NC1C(=O)N2CCCCC2C(=O)NC(C(C)C(=O)O)C(=O)NC(CC(=O)O)C(=O)NCC(=O)NC(CC(=O)O)C(=O)NCC(=O)NC(C(C)NC(=O)CCCNC(=O)[C@@H](N)C(C)C)C(=O)NC(C(C)C)C(=O)N2CCCC2C(=O)NC1C` (stereo partly drawn) [Compound 71, C15-Amphomycin-9-GABA-Val], the MIC worked out at 4 µg/mL.

Regarding `CCCCCCCCCCCCCCC(=O)NC(CC(=O)O)C(=O)NC1C(=O)N2CCCCC2C(=O)NC(C(C)C(=O)O)C(=O)NC(CC(=O)O)C(=O)NCC(=O)NC(CC(=O)O)C(=O)NCC(=O)NC(C(C)NC(=O)CCCNC(=O)CCCCCN)C(=O)NC(C(C)C)C(=O)N2CCCC2C(=O)NC1C` (stereo not drawn) [Compound 72, C15-Amphomycin-9-GABA-Ahx], the MIC came out at 8 µg/mL.

`CCCCCCCCCCCCCCC(=O)NC(CC(=O)O)C(=O)NC1C(=O)N2CCCCC2C(=O)NC(C(C)C(=O)O)C(=O)NC(CC(=O)O)C(=O)NCC(=O)NC(CC(=O)O)C(=O)NCC(=O)NC(C(C)NC(=O)CNC(=O)CCCCC)C(=O)NC(C(C)C)C(=O)N2CCCC2C(=O)NC1C` (stereo not drawn) [Compound 81, C15-Amphomycin-9-Gly-C6]: the MIC stood at 32 µg/mL.

As to `CCCCCCCCCCCCCCC(=O)NC(CC(=O)O)C(=O)NC1C(=O)N2CCCCC2C(=O)NC(C(C)C(=O)O)C(=O)NC(CC(=O)O)C(=O)NCC(=O)NC(CC(=O)O)C(=O)NCC(=O)NC(C(C)NC(=O)[C@H](C)N)C(=O)NC(C(C)C)C(=O)N2CCCC2C(=O)NC1C` (stereo partly drawn) [Compound 82, C15-Amphomycin-9-Ala], the MIC was found to be 2 µg/mL.

Consider `CCCCCCCCCCCCCCCCNC(=O)NC(CC(=O)O)C(=O)NC1C(=O)N2CCCCC2C(=O)NC(C(C)C(=O)O)C(=O)NC(CC(=O)O)C(=O)NCC(=O)NC(CC(=O)O)C(=O)NCC(=O)NC(C(C)NC(=O)CN)C(=O)NC(C(C)C)C(=O)N2CCCC2C(=O)NC1C` (stereo not drawn) [Compound 83, CH3—(CH2)15—NH—C(═O)-Amphomycin-9-Gly], for which the MIC was determined as 2 µg/mL.

Consider `CCCCCCCCCCCCCCCCS(=O)(=O)NC(CC(=O)O)C(=O)NC1C(=O)N2CCCCC2C(=O)NC(C(C)C(=O)O)C(=O)NC(CC(=O)O)C(=O)NCC(=O)NC(CC(=O)O)C(=O)NCC(=O)NC(C(C)NC(=O)CN)C(=O)NC(C(C)C)C(=O)N2CCCC2C(=O)NC1C` (stereo not drawn) [Compound 84, CH3—(CH2)15—SO2-Amphomycin-9-Gly], for which the MIC was in the range of 2 to 4 µg/mL.

As to `CCCCCCCCCCCC(=O)Nc1ccc(CC(=O)NC(CC(=O)O)C(=O)NC2C(=O)N3CCCCC3C(=O)NC(C(C)C(=O)O)C(=O)NC(CC(=O)O)C(=O)NCC(=O)NC(CC(=O)O)C(=O)NCC(=O)NC(C(C)NC(=O)CN)C(=O)NC(C(C)C)C(=O)N3CCCC3C(=O)NC2C)cc1` (stereo not drawn) [Compound 86, C12-(p-Apa)-Amphomycin-9-Gly] (Lauroyl-[X1]D[ξAbu(βξ-NH2)][Pip][ξAsp(βξ-Me)]DGDG[ξAbu(3ξ-NHCOCH2NH2)]VP; lactam 3-C; configuration not given here), the MIC worked out at 0.25 µg/mL.

Regarding `CCCCCCCCCCCC(=O)Nc1ccc(C(=O)NC(CC(=O)O)C(=O)NC2C(=O)N3CCCCC3C(=O)NC(C(C)C(=O)O)C(=O)NC(CC(=O)O)C(=O)NCC(=O)NC(CC(=O)O)C(=O)NCC(=O)NC(C(C)NC(=O)CN)C(=O)NC(C(C)C)C(=O)N3CCCC3C(=O)NC2C)cc1` (stereo not drawn) [Compound 87, C12-PABA-Amphomycin-9-Gly], the MIC is 0.25 to 0.5 µg/mL.

As for `CCCCCCCCCCCC(=O)Nc1ccc(/C=C/C(=O)NC(CC(=O)O)C(=O)NC2C(=O)N3CCCCC3C(=O)NC(C(C)C(=O)O)C(=O)NC(CC(=O)O)C(=O)NCC(=O)NC(CC(=O)O)C(=O)NCC(=O)NC(C(C)NC(=O)CN)C(=O)NC(C(C)C)C(=O)N3CCCC3C(=O)NC2C)cc1` (stereo not drawn) [Compound 89, C12-(p-Trans-Cinnamyl)-Amphomycin-9-Gly] (Lauroyl-[X8]D[ξAbu(βξ-NH2)][Pip][ξAsp(βξ-Me)]DGDG[ξAbu(3ξ-NHCOCH2NH2)]VP; lactam 3-C; configuration not given here), the MIC was 0.5 to 1 µg/mL.

With `CCCCCCCCCCCCCC(=O)Nc1ccc(C(=O)NCC(=O)NC(CC(=O)O)C(=O)NC2C(=O)N3CCCCC3C(=O)NC(C(C)C(=O)O)C(=O)NC(CC(=O)O)C(=O)NCC(=O)NC(CC(=O)O)C(=O)NCC(=O)NC(C(C)NC(=O)CN)C(=O)NC(C(C)C)C(=O)N3CCCC3C(=O)NC2C)cc1` (stereo not drawn) [Compound 91, C14-PABA-Gly-Amphomycin-9-Gly] ({Myristoyl-4Abz}-GD[ξAbu(βξ-NH2)][Pip][ξAsp(βξ-Me)]DGDG[ξAbu(3ξ-NHCOCH2NH2)]VP; lactam 3-C; configuration not given here), the MIC is 2 µg/mL.

On to `CCCCCCCCCCCCCCC(=O)NC(CC(=O)O)C(=O)NC1C(=O)N2CCCCC2C(=O)NC(C(C)C(=O)O)C(=O)NC(CC(=O)O)C(=O)NCC(=O)NC(CC(=O)O)C(=O)NCC(=O)NC(C(C)NC(=O)CCCCCNC(=O)CN)C(=O)NC(C(C)C)C(=O)N2CCCC2C(=O)NC1C` (stereo not drawn) [Compound 93, C15-Amphomycin-9-Ahx-Gly], for which the MIC came out at 4 µg/mL.

The test is the same for the next values; noted with them: S. aureus (MSSA), CAMHB supplemented with 0.625 mM calcium, 24 hours at about 37° C.; a range = compound tested multiple times.
On to `CCCCCCCCCCCC(=O)NC(CC(=O)O)C(=O)NC1C(=O)N2CCCCC2C(=O)NC(C(C)C(=O)O)C(=O)NC(CC(=O)O)C(=O)NCC(=O)NC(CC(=O)O)C(=O)NCC(=O)NC(C(C)NC(=O)CCN)C(=O)NC(C(C)C)C(=O)N2CCCC2C(=O)NC1C` (stereo not drawn) [Compound 73, C12-Amphomycin-9-(β-Ala)], for which the MIC is given as 73/2-4 μg/mL.

In the case of `CCCCCCCCCCCC(=O)NC(CC(=O)O)C(=O)NC1C(=O)N2CCCCC2C(=O)NC(C(C)C(=O)O)C(=O)NC(CC(=O)O)C(=O)NCC(=O)NC(CC(=O)O)C(=O)NCC(=O)NC(C(C)NC(=O)CNC)C(=O)NC(C(C)C)C(=O)N2CCCC2C(=O)NC1C` (stereo not drawn) [Compound 74, C12-Amphomycin-9-Sar], the MIC is recorded as 74/4 μg/mL.

Consider `CCCCCCCCCCCCCCCC(=O)NC(CC(=O)O)C(=O)NC1C(=O)N2CCCCC2C(=O)NC(C(C)C(=O)O)C(=O)NC(CC(=O)O)C(=O)NCC(=O)NC(CC(=O)O)C(=O)NCC(=O)NC(C(C)NC(=O)CNC)C(=O)NC(C(C)C)C(=O)N2CCCC2C(=O)NC1C` (stereo not drawn) [Compound 75, C16-Amphomycin-9-Sar], for which the MIC is given as 75/1 μg/mL.

Take `CCCCCCCCCC(=O)NC(CC(=O)O)C(=O)NC1C(=O)N2CCCCC2C(=O)NC(C(C)C(=O)O)C(=O)NC(CC(=O)O)C(=O)NCC(=O)NC(CC(=O)O)C(=O)NCC(=O)NC(C(C)NC(=O)CCN)C(=O)NC(C(C)C)C(=O)N2CCCC2C(=O)NC1C` (stereo not drawn) [Compound 76, C10-Amphomycin-9-(β-Ala)]: the MIC is on record as 76/16 μg/mL.

Consider `CCCCCCCCCC(=O)NC(CC(=O)O)C(=O)NC1C(=O)N2CCCCC2C(=O)NC(C(C)C(=O)O)C(=O)NC(CC(=O)O)C(=O)NCC(=O)NC(CC(=O)O)C(=O)NCC(=O)NC(C(C)NC(=O)CNC)C(=O)NC(C(C)C)C(=O)N2CCCC2C(=O)NC1C` (stereo not drawn) [Compound 77, C10-Amphomycin-9-Sar], for which the MIC was 77/32 μg/mL.

With `CCCCCCCCCCCCCCCCC(=O)NC(CC(=O)O)C(=O)NC1C(=O)N2CCCCC2C(=O)NC(C(C)C(=O)O)C(=O)NC(CC(=O)O)C(=O)NCC(=O)NC(CC(=O)O)C(=O)NCC(=O)NC(C(C)NC(=O)CNC)C(=O)NC(C(C)C)C(=O)N2CCCC2C(=O)NC1C` (stereo not drawn) [Compound 78, C17-Amphomycin-9-Sar], the MIC is 78/1 μg/mL.

Consider `CCCCCCCCCCCCCCCC(=O)NC(CC(=O)O)C(=O)NC1C(=O)N2CCCCC2C(=O)NC(C(C)C(=O)O)C(=O)NC(CC(=O)O)C(=O)NCC(=O)NC(CC(=O)O)C(=O)NCC(=O)NC(C(C)NC(=O)CCN)C(=O)NC(C(C)C)C(=O)N2CCCC2C(=O)NC1C` (stereo not drawn) [Compound 79, C16-Amphomycin-9-(β-Ala)], for which the MIC is reported as 79/1 μg/mL.

Broadly, the MIC is the least concentration at which growth counts as inhibited.
